Paper PMC6222476 (Molecules : A Journal of Synthetic Chemistry and Natural …, 2018)
Like-named read-outs stand apart in the source and are kept apart here.

How the values were obtained:
[1] = tested on: NIH/3T3 normal murine embryonic fibroblast cell line; experiment: in vitro; assay type: cell-based; settings: SRB assay
Experimental: (§1) All the newly synthesized compounds were screened for their in vitro anticancer activity against six cancer cell lines: SK-MEL-2, MCF-7, IMR-32, MG-63, HT-29 and Hep-G2 by SRB assay, using adriamycin as a standard drug. All the synthesized derivatives 4(a–n) were also tested for their cytotoxic effect on normal cell lines i.e., NIH/3T3 (murine embryonic fibroblast by the SRB assay method. The cell lines were grown in RPMI 1640 medium containing 10% fetal bovine serum and 2 mM L-glutamine. For the present screening experiments, cells were inoculated into 96 well microtiter plates in 90 µL at 5000 cells per well. After cell inoculation, the microtiter plates were incubated at 37 °C, 5% CO2, 95% air and 100% relative humidity for 24 h prior to addition of experimental drugs. Experimental drugs were solubilized in appropriate solvent to prepare stock of 10^−2 concentration. At the time of experiment four 10-fold serial dilutions were made using complete medium. Aliquots of 10 µL of these different drug dilutions were added to the appropriate micro-titer wells already containing 90 µL of medium, resulting in the required final drug concentrations. After compound addition, plates were incubated at standard conditions for 48 h. and assay was terminated by the addition of cold trichloroacetic acid (TCA). Cells were fixed in situ by the gentle addition of […] (final concentration, 10% TCA) and incubated for 60 min at 4 °C. The supernatant was discarded; the plates were washed five times with tap water and air dried.
(§2) Sulforhodamine B (SRB) solution (50 µL) at 0.4% (w/v) in 1% acetic acid was added to each of the wells, and plates were incubated for 20 min at room temperature. After staining, unbound dye was recovered and the residual dye was removed by washing five times with 1% acetic acid. The plates were air dried. Bound stain was subsequently eluted with 10 mM trizma base, and the absorbance was read on an ELISA plate reader at a wavelength of 540 nm with 690 nm reference wavelength. All the tests were repeated in at least three independent experiments at the concentrations of 10, 20, 40 and 80 µg/mL [57].

[2] = tested on: IMR-32 neuroblastoma cell line; experiment: cells; assay type: cell-based, human; settings: SRB assay, 48 h
Experimental: as §1, §2

[3] = tested on: MCF-7 human breast cancer cell line; experiment: cells; assay type: cell-based; settings: 48 h
Experimental: as §1, §2

[4] = tested on: SK-MEL-2 human melanoma cancer cell line; experiment: cells; assay type: cell-based; settings: SRB assay, 48 h, read-out: GI50 SKMEL-2
Experimental: as §1, §2

[5] = tested on: Hep-G2 human hepatoma cell line; experiment: cells; assay type: cell-based; settings: for GI50: SRB assay, 48 h, Hep-G2
Experimental: as §1, §2

[6] = tested on: HT-29 human colon cancer cell line; experiment: cells; assay type: cell-based; settings: for GI50: SRB assay, 48 h, HT-29; for anticancer activity compared with standard drug adriamycin, HT-29: HT-29 (human colon cancer) cell line
Experimental: as §1, §2

[7] = tested on: MG-63 human osteosarcoma cell line; experiment: cells; assay type: cell-based; settings: SRB assay, 48 h
Experimental: as §1, §2

[8] = tested on: SK-MEL-2 human melanoma cancer cell line; assay type: cell-based; settings: at the GI50 concentration, in comparison to control cells
in vitro = assay type: cell-based; settings: mouse; SRB assay, normal murine embryonic fibroblast cell line; read-out: GI50 NIH/3T3
Experimental: as §1, §2

[9] = tested on: IMR-32 neuroblastoma cell line; assay type: cell-based, human; settings: at the GI50 concentration, in contrast to control cells

| Structure (SMILES) | GI50 [1] | GI50 [2] | GI50 ([3]; SRB assay) | GI50 [4] | GI50 [5] | GI50 [6] | GI50 [7] | morphological changes in SK-MEL-2 cancer cell lines [8] | melting point | GI50 (in vitro) | GI50 ([2]; Homo sapiens) | GI50 ([3]; Homo sapiens, MCF7, SRB assay) | GI50 ([4]; Homo sapiens) | anticancer activity compared with standard drug Adriamycin, Hep-G2 ([5]; Hep-G2 (human hepatoma) cell line) | GI50 ([5]; Homo sapiens, HepG2) | anticancer activity compared with standard drug adriamycin, HT-29 [6] | GI50 ([6]; Homo sapiens) | GI50 ([7]; Homo sapiens) | morphological changes in IMR-32 cancer cells [9] |
| --- | --- | --- | --- | --- | --- | --- | --- | --- | --- | --- | --- | --- | --- | --- | --- | --- | --- | --- | --- |
| CCOP(=O)(OCC)C(NN=C1C(=O)Nc2ccccc21)c1ccc(O)c(OC)c1 (stereo not shown) [4g, Diethyl(4-hydroxy-3-methoxyphenyl)(2-(2-oxoindolin-3-ylidene)hydrazinyl)methylphosphonates] | > 250 µM | > 100 µM | > 100 µM | 24 µM | 32 µM | 12.2 µM | < 0.1 µM | cell detachment, cell wall deformation, cell shrinkage and reduced number of viable cells |  |  |  |  |  |  |  |  |  |  |  |
| CCOP(=O)(OCC)C(N/N=C1\C(=O)Nc2ccccc21)c1ccc(O)c(C)c1 (stereo not shown) [4l, (Z)-Diethyl (4-hydroxy-3-methylphenyl)(2-(2-oxoindolin-3-ylidene)hydrazinyl)methylphosphonate] |  |  |  |  |  |  |  |  | 190 to 192 °C | > 250 µM | 89.8 µM | 78.4 µM | 76.4 µM | equipotent | < 0.1 µM | equipotent | < 0.1 µM | < 0.1 µM |  |
| CCOP(=O)(OCC)C(NN=C1C(=O)Nc2ccccc21)c1ccc(O)cc1 (stereo not shown) [4f, Diethyl(4-hydroxyphenyl)(2-(2-oxoindolin-3-ylidene)hydrazinyl)methylphosphonate] |  |  |  |  |  |  |  |  | 140 to 142 °C | > 250 µM | < 0.1 µM | > 100 µM | 51.6 µM |  | 12.2 µM | equipotent | < 0.1 µM | < 0.1 µM | cell detachment, cell wall deformation, cell shrinkage and reduced number of viable cells |
